Experimental data from PubChem BioAssay (NCI).
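How tested: cells in 96-well plates exposed to compound for 48 hours at five concentrations. GI50 is the concentration that inhibits growth by half. TGI: total growth inhibition.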

Columns and labels:
Assay in all cases: NCI tumour cell line growth inhibition, 48 h
SR leukemia = test system: SR leukemia
HT29 colon = test system: HT29 colon
UACC-257 melanoma = test system: UACC-257 melanoma
HCT-15 colon = test system: HCT-15 colon
CAKI-1 renal = test system: CAKI-1 renal
OVCAR-8 ovarian = test system: OVCAR-8 ovarian
HCT-116 colon = test system: HCT-116 colon
IGROV1 ovarian = test system: IGROV1 ovarian
SF-268 CNS = test system: SF-268 CNS
NCI-H23 lung = test system: NCI-H23 lung
M19-MEL melanoma = test system: M19-MEL melanoma
HCC-2998 colon = test system: HCC-2998 colon
OVCAR-3 ovarian = test system: OVCAR-3 ovarian
786-0 renal = test system: 786-0 renal
KM12 colon = test system: KM12 colon
RPMI-8226 leukemia = test system: RPMI-8226 leukemia
M14 melanoma = test system: M14 melanoma
SNB-78 CNS = test system: SNB-78 CNS
DMS 114 small cell lung = test system: DMS 114 small cell lung
HOP-18 NSCLC = test system: HOP-18 NSCLC
EKVX NSCLC = test system: EKVX NSCLC
NCI-H460 lung = test system: NCI-H460 lung
U251 CNS = test system: U251 CNS
SF-295 CNS = test system: SF-295 CNS
DMS 273 small cell lung = test system: DMS 273 small cell lung
RXF 393 renal = test system: RXF 393 renal
SNB-75 CNS = test system: SNB-75 CNS
SW-620 colon = test system: SW-620 colon
LXFL 529 NSCLC = test system: LXFL 529 NSCLC
HOP-92 NSCLC = test system: HOP-92 NSCLC
DLD-1 colon = test system: DLD-1 colon
CCRF-CEM leukemia = test system: CCRF-CEM leukemia
SN12C renal = test system: SN12C renal
HOP-62 NSCLC = test system: HOP-62 NSCLC
NCI-H522 lung = test system: NCI-H522 lung
K-562 leukemia = test system: K-562 leukemia
COLO 205 colon = test system: COLO 205 colon
MALME-3M melanoma = test system: MALME-3M melanoma
ACHN renal = test system: ACHN renal
A498 renal = test system: A498 renal
XF 498 CNS = test system: XF 498 CNS
SK-MEL-2 melanoma = test system: SK-MEL-2 melanoma
SNB-19 CNS = test system: SNB-19 CNS
KM20L2 colon = test system: KM20L2 colon
NCI-H226 lung = test system: NCI-H226 lung
UO-31 renal = test system: UO-31 renal
OVCAR-5 ovarian = test system: OVCAR-5 ovarian
SK-OV-3 ovarian = test system: SK-OV-3 ovarian
LOX IMVI melanoma = test system: LOX IMVI melanoma
UACC-62 melanoma = test system: UACC-62 melanoma
RXF-631 renal = test system: RXF-631 renal
HL-60(TB) leukemia = test system: HL-60(TB) leukemia
MOLT-4 leukemia = test system: MOLT-4 leukemia
SK-MEL-5 melanoma = test system: SK-MEL-5 melanoma
SK-MEL-28 melanoma = test system: SK-MEL-28 melanoma
TK-10 renal = test system: TK-10 renal
OVCAR-4 ovarian = test system: OVCAR-4 ovarian
A549 NSCLC = test system: A549 NSCLC
SF-539 CNS = test system: SF-539 CNS
P388/ADR leukemia = test system: P388/ADR leukemia
PC-3 prostate = test system: PC-3 prostate
P388 leukemia = test system: P388 leukemia

O=c1/c(=C/c2ccco2)sc2nc3ccccc3n12
TGI (SR leukemia): > 10 µM
GI50 (HT29 colon): > 100 µM
TGI (HT29 colon): > 100 µM
GI50 (UACC-257 melanoma): > 100 µM
TGI (UACC-257 melanoma): > 100 µM
TGI (HCT-15 colon): > 10 µM
GI50 (CAKI-1 renal): > 100 µM
TGI (CAKI-1 renal): > 100 µM
GI50 (OVCAR-8 ovarian): > 100 µM
TGI (OVCAR-8 ovarian): > 100 µM
GI50 (HCT-116 colon): > 100 µM
TGI (HCT-116 colon): > 100 µM
GI50 (IGROV1 ovarian): > 100 µM
TGI (IGROV1 ovarian): > 100 µM
TGI (SF-268 CNS): > 10 µM
GI50 (NCI-H23 lung): > 100 µM
TGI (NCI-H23 lung): > 100 µM
GI50 (M19-MEL melanoma): > 100 µM
TGI (M19-MEL melanoma): > 100 µM
GI50 (HCC-2998 colon): > 100 µM
TGI (HCC-2998 colon): > 100 µM
GI50 (OVCAR-3 ovarian): > 100 µM
TGI (OVCAR-3 ovarian): > 100 µM
GI50 (786-0 renal): > 100 µM
TGI (786-0 renal): > 100 µM
TGI (KM12 colon): > 100 µM
GI50 (RPMI-8226 leukemia): > 100 µM
TGI (RPMI-8226 leukemia): > 100 µM
GI50 (M14 melanoma): > 100 µM
TGI (M14 melanoma): > 100 µM
GI50 (SNB-78 CNS): > 100 µM
TGI (SNB-78 CNS): > 100 µM
GI50 (DMS 114 small cell lung): > 100 µM
TGI (DMS 114 small cell lung): > 100 µM
TGI (HOP-18 NSCLC): > 100 µM
GI50 (EKVX NSCLC): > 10 µM
TGI (EKVX NSCLC): > 100 µM
GI50 (NCI-H460 lung): > 100 µM
TGI (NCI-H460 lung): > 100 µM
TGI (U251 CNS): > 10 µM
GI50 (SF-295 CNS): > 100 µM
TGI (SF-295 CNS): > 100 µM
GI50 (DMS 273 small cell lung): > 10 µM
TGI (DMS 273 small cell lung): > 100 µM
GI50 (RXF 393 renal): > 10 µM
TGI (RXF 393 renal): > 100 µM
GI50 (SNB-75 CNS): > 10 µM
TGI (SNB-75 CNS): > 100 µM
GI50 (SW-620 colon): > 100 µM
TGI (SW-620 colon): > 100 µM
GI50 (LXFL 529 NSCLC): > 100 µM
TGI (LXFL 529 NSCLC): > 100 µM
TGI (HOP-92 NSCLC): > 10 µM
GI50 (DLD-1 colon): > 100 µM
TGI (DLD-1 colon): > 100 µM
GI50 (CCRF-CEM leukemia): > 100 µM
TGI (CCRF-CEM leukemia): > 100 µM
TGI (SN12C renal): > 10 µM
TGI (HOP-62 NSCLC): > 100 µM
GI50 (NCI-H522 lung): > 100 µM
TGI (NCI-H522 lung): > 100 µM
GI50 (K-562 leukemia): > 100 µM
TGI (K-562 leukemia): > 100 µM
TGI (COLO 205 colon): > 100 µM
GI50 (MALME-3M melanoma): > 100 µM
TGI (MALME-3M melanoma): > 100 µM
GI50 (ACHN renal): > 100 µM
TGI (ACHN renal): > 100 µM
GI50 (A498 renal): > 100 µM
TGI (A498 renal): > 100 µM
GI50 (XF 498 CNS): > 100 µM
TGI (XF 498 CNS): > 100 µM
GI50 (SK-MEL-2 melanoma): > 100 µM
TGI (SK-MEL-2 melanoma): > 100 µM
GI50 (SNB-19 CNS): > 100 µM
TGI (SNB-19 CNS): > 100 µM
TGI (KM20L2 colon): > 10 µM
GI50 (NCI-H226 lung): > 100 µM
TGI (NCI-H226 lung): > 100 µM
TGI (UO-31 renal): > 10 µM
TGI (OVCAR-5 ovarian): > 10 µM
TGI (SK-OV-3 ovarian): > 100 µM
GI50 (LOX IMVI melanoma): > 100 µM
TGI (LOX IMVI melanoma): > 100 µM
GI50 (UACC-62 melanoma): > 100 µM
TGI (UACC-62 melanoma): > 100 µM
GI50 (RXF-631 renal): > 100 µM
TGI (RXF-631 renal): > 100 µM
GI50 (HL-60(TB) leukemia): > 100 µM
TGI (HL-60(TB) leukemia): > 100 µM
GI50 (MOLT-4 leukemia): > 100 µM
TGI (MOLT-4 leukemia): > 100 µM
GI50 (SK-MEL-5 melanoma): > 100 µM
TGI (SK-MEL-5 melanoma): > 100 µM
GI50 (SK-MEL-28 melanoma): > 100 µM
TGI (SK-MEL-28 melanoma): > 100 µM
GI50 (TK-10 renal): > 10 µM
TGI (TK-10 renal): > 100 µM
GI50 (OVCAR-4 ovarian): > 100 µM
TGI (OVCAR-4 ovarian): > 100 µM
GI50 (A549 NSCLC): > 100 µM
TGI (A549 NSCLC): > 100 µM
GI50 (SF-539 CNS): > 100 µM
TGI (SF-539 CNS): > 100 µM

CCCCCCCCCCNC1CC(OC2CC(O)(C(O)CO)Cc3c(O)c4c(c(O)c32)C(=O)c2c(OC)cccc2C4=O)OC(C)C1O (configuration not stated)
TGI (UACC-257 melanoma): 3.05 µM
TGI (HCT-15 colon): 4 µM
TGI (HCT-116 colon): 0.65 µM
TGI (P388/ADR leukemia): 3.34 µM
TGI (NCI-H23 lung): 12.6 µM
TGI (HCC-2998 colon): 2.74 µM
TGI (RPMI-8226 leukemia): 3.73 µM
TGI (RXF 393 renal): 2.75 µM
TGI (SNB-75 CNS): 2.74 µM
TGI (DLD-1 colon): 2.28 µM
TGI (CCRF-CEM leukemia): 4.91 µM
TGI (SN12C renal): 3.4 µM
TGI (NCI-H522 lung): 3.73 µM
TGI (K-562 leukemia): 0.963 µM
TGI (A498 renal): 2.62 µM
TGI (XF 498 CNS): 3.34 µM
TGI (OVCAR-5 ovarian): 3.29 µM
TGI (PC-3 prostate): 2.85 µM
TGI (P388 leukemia): 0.362 µM
TGI (MOLT-4 leukemia): 0.9 µM
TGI (SK-MEL-5 melanoma): 3.06 µM
TGI (TK-10 renal): 56.5 µM
TGI (SF-539 CNS): 3.41 µM
